≈ marks a conversion by molar mass, not a printed value. Read-outs that look alike come from different tables or passages of the source. Values belong to the compound of their own block, whether it stands above or below them.
How the values were obtained:
Format in all cases: cell-based
[1] = tested on: K. pneumoniae producing KPC (n = 25); experiment: MIC by microdilution, clinical isolates; details: for S (%), susceptible isolates: CLSI criteria, tigecycline US FDA criteria
Protocol: (§1) The in vitro activity of representative antibacterial aminoglycoside compounds against a collection of 102 K. pneumoniae clinical isolates collected from January 2006 to October 2007 at the University of Pittsburgh Medical Center, and three Cleveland institutions including University Hospitals Case Medical Center, the Cleveland Clinic, and the Louis Stokes Department of Veterans Affairs Medical Center was analyzed. The 102 K. pneumoniae isolates were selected based on a multidrug-resistant (MDR) phenotype (i.e., resistance to >3 antibiotic classes). Twenty-five isolates were KPC carbapenemase producing (KPC-Kp), and were part of a previous study where the β-lactamase background and clonality were characterized (see Endimiani, A., A. M. Hujer, F. Perez, C. R. Bethel, K. M. Hujer, J. Kroeger, M. Oethinger, D. L. Paterson, M. D. Adams, M. R. Jacobs, D. J. Diekema, G. S. Hall, S. G. Jenkins, L. B. Rice, F. C. Tenover, and R. A. Bonomo. 2009. Characterization of blaKPC-containing Klebsiella pneumoniae isolates detected in different institutions in the Eastern USA. J Antimicrob Chemother 63:427-37).
(§2) Minimum inhibitory concentrations (MICs) were performed by microdilution method using cation-adjusted Mueller-Hinton broth, according to the Clinical and Laboratory Standards Institute (CLSI) criteria (see CLSI. 2006. Methods for dilution antimicrobial susceptibility tests for bacteria that grow aerobically; approved standard-Seventh edition. Clinical and Laboratory Standard Institute, Wayne, Pa. CLSI document M7-A7). These MIC assays were conducted following the same protocol as set forth in Example 110. […] The following ATCC control strains were used: Escherichia coli ATCC 25922, Pseudomonas aeruginosa ATCC 27853, and K. pneumoniae ATCC 700603.

[2] = tested on: multidrug-resistant (MDR) K. pneumoniae isolates (n = 102); experiment: MIC by microdilution, clinical isolates; details: for S (%), susceptible isolates: CLSI criteria, tigecycline US FDA criteria
Protocol: as §1, §2

[3] = tested on: E. coli ATCC 25922 (AECO001); experiment: MIC assay, CLSI broth microdilution; design: MIC AECO001: unit not given here; details: for MIC: Escherichia coli
Summary of the method: (§3)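 Test compounds were diluted two-fold at 2× strength in Mueller Hinton Broth, then combined 1:1 with saline-suspended bacteria from an overnight agar colony to reach 5×10^5 CFU/mL. Incubation followed at 35° C. for 20 hours in ambient air, per CLSI reference methods.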

[4] = tested on: P. aeruginosa ATCC 27853 (APAE001); experiment: MIC assay, CLSI broth microdilution; details: Pseudomonas aeruginosa
Summary of the method: as §3

[5] = K. pneumoniae producing KPC (n = 25)
[6] = Total MDR K. pneumoniae isolates (n = 102)
[7] = Klebsiella pneumoniae, K. pneumoniae producing KPC (n = 25), read-out: MIC50
[8] = Klebsiella pneumoniae, K. pneumoniae producing KPC (n = 25), read-out: MIC90
[9] = Klebsiella pneumoniae, Total MDR K. pneumoniae isolates (n = 102), read-out: MIC50
[10] = Klebsiella pneumoniae, Total MDR K. pneumoniae isolates (n = 102), read-out: MIC90
[11] = ATCC25922, read-out: MIC AECO001
[12] = ATCC27853, read-out: MIC APAE001

SMILES: CN(C)c1cc(NC(=O)CNC(C)(C)C)c(O)c2c1C[C@H]1C[C@H]3[C@H](N(C)C)C(O)=C(C(N)=O)C(=O)[C@@]3(O)C(O)=C1C2=O [Tigecycline, tigecycline]
S (%), susceptible isolates [1, 5]: 96.0%
MIC50 ([1]; Klebsiella pneumoniae): 1 µg/mL (≈ 1.71 µM)
MIC90 ([1]; Klebsiella pneumoniae): 2 µg/mL (≈ 3.41 µM)
MIC50 ([2]; Klebsiella pneumoniae): 1 µg/mL (≈ 1.71 µM)
MIC90 ([2]; Klebsiella pneumoniae): 2 µg/mL (≈ 3.41 µM)
S (%), susceptible isolates [2, 6]: 90.2%
S (%), susceptible isolates ([2]; Total MDR K. pneumoniae isolates (n = 102), listed as tigecycline): ~90%

MIC50 [1, 7]: 32 µg/mL (≈ 68.4 µM)
MIC90 [1, 8]: ≥ 64 µg/mL
MIC50 [2, 9]: 32 µg/mL (≈ 68.4 µM)
MIC90 [2, 10]: ≥ 64 µg/mL
MIC90 [2, 6]: ≥64 µg/mL
SMILES: NC[C@H]1O[C@H](O[C@H]2[C@H](O)[C@@H](O[C@H]3O[C@H](CO)[C@@H](O)[C@H](N)[C@H]3O)[C@H](N)C[C@@H]2N)[C@H](N)C[C@@H]1O [Tobramycin, tobramycin]
S (%), susceptible isolates [1, 5]: 8.0%
S (%), susceptible isolates ([1]; K. pneumoniae producing KPC (n = 25), listed as tobramycin): 8%
S (%), susceptible isolates [2, 6]: 10.8%

SMILES: C[C@@H](O)[C@H]1C(=O)N2C(C(=O)O)=C(SCCN=CN)C[C@H]12 [Imipenem, imipenem]
MIC ([3]; ATCC25922): 0.125 µg/mL (≈ 0.418 µM)
S (%), susceptible isolates [1, 5]: 12.0%
MIC50 [1, 7]: 8 µg/mL (≈ 26.7 µM)
MIC90 [1, 8]: > 16 µg/mL
MIC50 [2, 9]: 0.5 µg/mL (≈ 1.67 µM)
MIC90 [2, 10]: 8 µg/mL (≈ 26.7 µM)
S (%), susceptible isolates [2, 6]: 75.5%
S (%), susceptible isolates ([2]; Total MDR K. pneumoniae isolates (n = 102), listed as imipenem): approximately 75%

MIC50 [1, 7]: > 32 µg/mL
MIC90 [1, 8]: > 32 µg/mL
MIC50 [2, 9]: > 32 µg/mL
MIC90 [2, 10]: > 32 µg/mL
MIC90 [2, 6]: >32 µg/mL
SMILES: CC(C)(O/N=C(\C(=O)N[C@@H]1C(=O)N2C(C(=O)[O-])=C(C[n+]3ccccc3)CS[C@H]12)c1csc(N)n1)C(=O)O [Ceftazidime, ceftazidime]
S (%), susceptible isolates [1, 5]: 0.0%
S (%), susceptible isolates [2, 6]: 9.8%

MIC50 [1, 7]: 8 µg/mL (≈ 14.5 µM)
MIC90 [1, 8]: 16 µg/mL (≈ 29 µM)
MIC ([1]; Klebsiella pneumoniae, all KPC-Kp strains, read-out: MICs of all strains): < 32 µg/mL
MIC50 [2, 9]: 4 µg/mL (≈ 7.24 µM)
MIC90 [2, 10]: 16 µg/mL (≈ 29 µM)
SMILES: NCC[C@H](O)C(=O)N[C@@H]1C[C@H](N)[C@@H](O[C@H]2O[C@H](CN)CC[C@H]2N)[C@H](O)[C@H]1O[C@H]1O[C@H](CO)[C@@H](O)[C@H](N)[C@H]1O [Arbekacin, arbekacin]

MIC ([3]; Table 1, AECO001 is ATCC25922, read-out: MIC AECO001): 1 to 16 µg/mL (≈ 1.7 to 27.2 µM)
MIC AECO001 ([3]; Table 3, E. coli ATCC25922): 1
MIC ([4]; Table 1, APAE001 is ATCC27853, read-out: MIC APAE001): > 16 µg/mL
SMILES: CN[C@@H]1[C@@H](O)[C@@H](O[C@@H]2[C@@H](O)[C@H](O[C@H]3OC(CNCC4CC4)=CC[C@H]3N)[C@@H](N)C[C@H]2NC(=O)[C@@H](O)CN)OC[C@]1(C)O [Example 13, 6′-(Methyl-cyclopropyl)-1-(3-amino-2(S)-hydroxy-propionyl)-sisomicin]

SMILES: CN[C@@H]1[C@@H](O)[C@@H](O[C@@H]2[C@@H](O)[C@H](O[C@H]3OC(CNCC(O)CCCN)=CC[C@H]3N)[C@@H](N)C[C@H]2NC(=O)[C@@H](O)CCN)OC[C@]1(C)O (stereo partly drawn) [Example 32, 6′-(2-Hydroxy-5-amino-pentyl)-1-(4-amino-2(S)-hydroxy-butyryl)-sisomicin]
MIC [3, 11]: < 1 µg/mL
MIC [4, 12]: 1 to 16 µg/mL (≈ 1.54 to 24.6 µM)

SMILES: CN[C@@H]1[C@@H](O)[C@@H](O[C@@H]2[C@@H](O)[C@H](O[C@H]3OC(CNCC(O)CO)=CC[C@H]3N)[C@@H](N)C[C@H]2NC(=O)[C@H](O)CCN)OC[C@]1(C)O (stereo partly drawn) [Example 3, 6′-(2-Hydroxy-propanol)-1-(4-amino-2(R)-hydroxy-butyryl)-sisomicin]
MIC [3, 11]: 1 to 16 µg/mL (≈ 1.61 to 25.7 µM)
MIC [4, 12]: > 16 µg/mL

SMILES: CN[C@@H]1[C@@H](O)[C@@H](O[C@@H]2[C@@H](O)[C@H](O[C@H]3OC(CNCC4CCNCC4)=CC[C@H]3N)[C@@H](N)C[C@H]2NC(=O)[C@H](O)CCN)OC[C@]1(C)O [Example 4, 6′-(Methyl-piperidin-4-yl)-1-(4-amino-2(R)-hydroxy-butyryl)-sisomicin]
MIC [3, 11]: 1 to 16 µg/mL (≈ 1.55 to 24.8 µM)
MIC [4, 12]: 1 to 16 µg/mL (≈ 1.55 to 24.8 µM)

SMILES: CN[C@@H]1[C@@H](O)[C@@H](O[C@@H]2[C@@H](O)[C@H](O[C@H]3OC(CNC[C@@H]4C[C@H](N)CN4)=CC[C@H]3N)[C@@H](N)C[C@H]2NC(=O)[C@@H](O)CN)OC[C@]1(C)O [Example 65, 6′-(Methyl-4(S)-amino-pyrrolidin-2(S)-yl)-1-(3-amino-2(S)-hydroxy-propionyl)-sisomicin]
MIC [3, 11]: 1 to 16 µg/mL (≈ 1.58 to 25.3 µM)
MIC [4, 12]: 1 to 16 µg/mL (≈ 1.58 to 25.3 µM)

SMILES: CN[C@@H]1[C@@H](O)[C@@H](O[C@@H]2[C@@H](O)[C@H](O[C@H]3OC(CNCCCN)=CC[C@H]3N)[C@@H](N)C[C@H]2NC(=O)C2(O)CCNC2)OC[C@]1(C)O (stereo partly drawn) [Example 40]
MIC [3, 11]: 1 to 16 µg/mL (≈ 1.62 to 25.9 µM)
MIC [4, 12]: 1 to 16 µg/mL (≈ 1.62 to 25.9 µM)

SMILES: CN[C@@H]1[C@@H](O)[C@@H](O[C@@H]2[C@@H](O)[C@H](O[C@H]3OC(CN)=CC[C@H]3NCC3CCCN3)[C@@H](N)C[C@H]2NC(=O)[C@@H](O)CCN)OC[C@]1(C)O (stereo partly drawn) [Example 85, 2′-(Methyl-pyrrolidin-2-yl)-1-(4-amino-2(S)-hydroxy-butyryl)-sisomicin]
MIC [3, 11]: < 1 µg/mL
MIC [4, 12]: 1 to 16 µg/mL (≈ 1.58 to 25.3 µM)

SMILES: CN[C@@H]1[C@@H](O)[C@@H](O[C@@H]2[C@@H](O)[C@H](O[C@H]3OC(CNCCO)=CC[C@H]3N)[C@@H](N)C[C@H]2NS(=O)(=O)CCN)OC[C@]1(C)O [Example 29, 6′-(2-Hydroxy-ethyl)-1-(2-amino-ethylsulfonamide)-sisomicin]
MIC [3, 11]: 1 to 16 µg/mL (≈ 1.67 to 26.7 µM)
MIC [4, 12]: > 16 µg/mL

SMILES: CN[C@@H]1[C@@H](O)[C@@H](O[C@@H]2[C@@H](O)[C@H](O[C@H]3OC(CNC[C@H]4C[C@H](N)C4)=CC[C@H]3N)[C@@H](N)C[C@H]2NC(=O)C(O)C2CNC2)OC[C@]1(C)O (stereo partly drawn) [Example 72, 6′-(Methyl-trans-3-amino-cyclobutyl)-1-(2-(azetidin-3-yl)-2-hydroxy-acetyl)-sisomicin]
MIC [3, 11]: 1 to 16 µg/mL (≈ 1.55 to 24.9 µM)
MIC [4, 12]: 1 to 16 µg/mL (≈ 1.55 to 24.9 µM)

SMILES: CN[C@@H]1[C@@H](O)[C@@H](O[C@@H]2[C@@H](O)[C@H](O[C@H]3OC(CN)=CC[C@H]3NCCO)[C@@H](N)C[C@H]2NC(=O)[C@@H](O)CCN)OC[C@]1(C)O [Example 98, 2′-(2-Hydroxy-ethyl)-1-(4-amino-2(S)-hydroxy-butyryl)-sisomicin]
MIC [3, 11]: 1 to 16 µg/mL (≈ 1.69 to 27 µM)
MIC [4, 12]: 1 to 16 µg/mL (≈ 1.69 to 27 µM)

SMILES: CN[C@@H]1[C@@H](O)[C@@H](O[C@@H]2[C@@H](O)[C@H](O[C@H]3OC(CN)=CC[C@H]3NC[C@H](C)N)[C@@H](N)C[C@H]2NC(=O)[C@@H](O)CCN)OC[C@]1(C)O [Example 95, 2′-(2(S)-Amino-propyl)-1-(4-amino-2(S)-hydroxy-butyryl)-sisomicin]
MIC [3, 11]: < 1 µg/mL
MIC [4, 12]: > 16 µg/mL

SMILES: CN[C@@H]1[C@@H](O)[C@@H](O[C@@H]2[C@@H](O)[C@H](O[C@H]3OC(CNC[C@H]4C[C@H](N)C4)=CC[C@H]3N)[C@@H](N)C[C@H]2NC(=O)C2(O)CCNC2)OC[C@]1(C)O (stereo partly drawn) [Example 78, 6′-(Methyl-trans-3-amino-cyclobutyl)-1-(3-hydroxy-pyrrolidin-3-yl-acetyl)-sisomicin]
MIC [3, 11]: < 1 µg/mL
MIC [4, 12]: 1 to 16 µg/mL (≈ 1.55 to 24.9 µM)

SMILES: CN[C@@H]1[C@@H](O)[C@@H](O[C@@H]2[C@@H](O)[C@H](O[C@H]3OC(CN)=CC[C@H]3NC(=O)CC3CNCCO3)[C@@H](N)C[C@H]2NC(=O)[C@@H](O)CCN)OC[C@]1(C)O (stereo partly drawn) [Example 92, 2′-(Morpholin-2-yl-acetyl)-1-(4-amino-2(S)-hydroxy-butyryl)-sisomicin]
MIC [3, 11]: < 1 µg/mL
MIC [4, 12]: > 16 µg/mL

SMILES: CN[C@@H]1[C@@H](O)[C@@H](O[C@@H]2[C@@H](O)[C@H](O[C@H]3OC(CNCC4CCCN4)=CC[C@H]3N)[C@@H](N)C[C@H]2NC(=O)[C@@H](O)CCN)OC[C@]1(C)O (stereo partly drawn) [Example 49, 6′-(Methyl-pyrrolidin-2-yl)-1-(4-amino-2(S)-hydroxy-butyryl)-sisomicin]
MIC [3, 11]: < 1 µg/mL
MIC [4, 12]: 1 to 16 µg/mL (≈ 1.58 to 25.3 µM)

SMILES: CN[C@@H]1[C@@H](O)[C@@H](O[C@@H]2[C@@H](O)[C@H](O[C@H]3OC(CNC[C@H]4C[C@H](N)C4)=CC[C@H]3N)[C@@H](N)C[C@H]2NC(=O)[C@@H](O)CN)OC[C@]1(C)O [Example 59, 6′-(Methyl-trans-3-amino-cyclobutyl)-1-(3-amino-2(S)-hydroxy-propionyl)-sisomicin]
MIC [3, 11]: < 1 µg/mL
MIC [4, 12]: 1 to 16 µg/mL (≈ 1.62 to 25.9 µM)
